From US6579689B2, “Modulation of γ-secretase activity” (Scios Inc., priority 2000, dated 2003)

Test system: γ-secretase
Experiment: Cell-free 0.5% CHAPS solubilized γ-secretase activity, Aβ production (Aβ40 ELISA)
Assay type: biochemical, monkey
Conditions: for enhancement of γ-secretase activity by other phospholipids, compared with cardiolipin: concentration not given
Experimental: To produce membranes containing high levels of CT99, ˜10^9 CV-1 monkey fibroblast cells were infected with VV99 for 48 hours. After this period, the cells were harvested, washed with saline, and pelleted by low speed centrifugation at 1200 rpm for 10 minutes at 4° C. The cell pellet was resuspended in 25 mls 0.25 M sucrose, 10 mM Tris-HCl pH 7.5, 1 mM EDTA then homogenized with a Dounce homogenizer using a tight fitting pestle. The sample is centrifuged at 2300 rpm for 10 minutes at 4° C. This homogenization step was repeated.
The resulting pellets containing nuclei and large debris were discarded and the post-nuclear supernatants were combined. The supernatant fraction was centrifuged at 100,000×g for 30-60 minutes at 4° C. to collect membranes. The membranes were washed in buffer containing 0.2% saponin, 10 mM Tris-HCl pH 7.5, 1 mM EDTA to remove contaminating proteolytic activity, followed by centrifugation at 100,000×g for 30 minutes at 4° C. This step was repeated. Membranes at this stage can be used directly for assaying γ-secretase activity, or may be further treated to provide solubilized γ-secretase activity.
The saponin-washed membrane fraction was next solubilized with 0.5% CHAPS prepared in 10 mM Tris-HCl pH 7.5 with 5 mM EDTA. Aliquots of membranes containing γ-secretase activity were treated with detergent at 0° C. for 1 hour after which the treated samples were centrifuged at 100,000×g for 1 hour at 4° C. The resulting supernatants (soluble fractions) were assayed for Aβ production. 0.5% CHAPS was successful in solubilizing and preserving the γ-secretase activity.
To produce Aβ protein in vitro, an aliquot of the saponin-washed fraction or an aliquot of the 0.5% CHAPS treated soluble fraction was first adjusted to pH 7.0 by making a 1:10 dilution of the fraction with 1 M Tris-HCl pH 7.0 for a final concentration of 100mM Tris-HC1. The neutralized samples were incubated at 37° C. for various lengths of time, typically ranging from 0 (control) to 24 hours. After incubation, the samples were assayed for Aβ production as follows.
Wells of a 96-microtiter plate were coated overnight at 4° C. with 100 μl/well of a 4 μg/ml solution of purified monoclonal antibody 1702.1 diluted in phosphate buffered saline (PBS). The 1702.1 monoclonal antibody specifically recognizes the Aβ40 isoform. […] The plate is washed three times with PBS 0.05% Tween 20 and the amount of 1101.1 second antibody bound to the well is detected with HRP-conjugated Streptavidin (Zymed) using a tetramethylbenzidine substrate (Sigma). The resulting colormetric reaction is quantified by reading the plate at OD^450nm. The amount of Aβ40 present in the test sample is calculated from known amounts of synthetic Aβ40 peptide standard run in the ELISA. […]

Compound	enhancement of γ-secretase activity by other phospholipids, compared with cardiolipin	enhancement of γ-secretase activity (Aβ production) by added phospholipid (1 μM cardiolipin, FIG. 4)
CCCCCCCCCCCCCCCC(=O)OC[C@H](COP(=O)([O-])OCC[N+](C)(C)C)OC(=O)CCCCCCCCCCCCCCC [1,2 dipalmitoyl-5-glycerol-3-phosphocholine]	comparable results	–
cardiolipin	–	nearly equivalent to the activity originally present in the membranes prior to solubilization
phosphotidylcholine	comparable results	–
phosphotidylserine	comparable results	–
